Data as given in US12491181B2, “Nimodipine injection composition and preparation method therefor” (priority 2018, dated 2025).
Values after ≈ are worked out from the molar mass of the structure shown. Read-outs that look alike come from different tables or passages of the source.

Assays:
[1] = Solubility Test for Nimodipine in Oil Phase; format: physicochemical; conditions: normal temperature; for solubility: oil or lipid
Source text: There are different crystalline forms for nimodipine, i.e. α and β. The solubility is different in solvents for different crystalline forms. […] The solubility in an oil phase was not reported yet. […] Furthermore, the solubility of α-type is much greater than that of β-type both in the medium-chain fatty oil and the mixture of soybean oil and medium-chain fatty oil (see the table below). Therefore, formulating α-type nimodipine into a fat emulsion injection may solve the problems of low drug loading efficiency, poor safety, and poor stability occurring in its solution for injection and other fat emulsions for injection developed by the prior art. [table]

[2] = cited from earlier work
[3] = tested on: Wild-type AB zebrafish larvae; assay: Zebrafish cardiovascular toxicity, administration by dissolving the drug into the water; format: in vivo; parameters: Mortality / Incidence of Atrial Arrest: unit not given here
[4] = tested on: Wild-type AB zebrafish larvae; assay: Zebrafish cardiovascular toxicity, administration via yolk sac injection; format: in vivo; conditions: yolk sac injection 10 nl
Method: Wild-type AB zebrafish larvae were treated with the drugs to be tested for 24 hours via yolk sac injection administration with a maximum dose volume of 40 nl, and the five initial test concentrations were: 0.1 mg/mL, 1 mg/mL, 10 mg/mL, 100 mg/mL, and 500 mg/mL, respectively. At the same time, a blank control group was set up, with 30 zebrafish treated at each concentration. At the end of drug treatment, the number of zebrafish deaths in each experimental group was counted to provide a basis for the next experimental concentration design.
2.2.1 10 nl was administered via yolk sac injection. After treatment for a certain period of time, 10 zebrafish were randomly selected to have their heart rates counted, and their relative heart rates were calculated for comparison.
2.2.3 10 zebrafish in each group were randomly selected and observed under the dissecting microscope. […]
Three formal experimental concentrations were set. After treatment for a certain period of time, 10 zebrafish were randomly selected to have their heart rates counted, and their relative heart rates were calculated for comparison.

SD rats = assay: Passive Anaphylaxis Test in Rats; format: in vivo, rat; parameters: key to Blue Stain Reaction: − indicates negative; + indicates positive; conditions: sensitized SD rats, 100 mg/kg intravenously, positive control
guinea pigs = assay: Active Systemic Anaphylaxis Test in Guinea Pigs; conditions: positive control group, after stimulation
[5] = cited from earlier work; remark: listed apart in the source
[6] = dissolved into the water, 0.625 μg/ml
[7] = dissolved into the water, 1.25 μg/ml
[8] = dissolved into the water, 2.5 μg/ml
[9] = dissolved into the water, 5.0 μg/ml

## COCCOC(=O)C1=C(C)NC(C)=C(C(=O)OC(C)C)C1c1cccc([N+](=O)[O-])c1 (stereo not drawn) [α-type, nimodipine]
[1]
  Solubility, Medium-chain Oil: 23.22 mg/mL (≈ 55.5 mM)
  Solubility, Soybean Oil: 7.5 mg/mL (≈ 17.9 mM)
  Solubility, Soybean Oil:Medium-chain Oil (4:6): 18.1 mg/mL (≈ 43.3 mM)

## COCCOC(=O)C1=C(C)NC(C)=C(C(=O)OC(C)C)C1c1cccc([N+](=O)[O-])c1 (centres unmarked) [Drug substance, Nimodipine]
[2]; healthy subjects
  oral bioavailability: 5-13%
[2]; in vivo
  biological half-life: 1.5-2 h
[2]; patients with subarachnoid hemorrhage
  oral bioavailability: 3-28%
[3]; dissolved into the water
  concentration at which pericardial edema was induced in all zebrafish: 5000 ng/mL
[3]; [6]
  Incidence of Atrial Arrest: 0
  Incidence of Pericardial Edema: 10
  Mortality: 0
  Relative Heart Rate: 97.0
[3]; [7]
  Incidence of Atrial Arrest: 0
  Incidence of Pericardial Edema: 20
  Mortality: 0
  Relative Heart Rate: 94.8
[3]; [8]
  Incidence of Atrial Arrest: 10
  Incidence of Pericardial Edema: 50
  Mortality: 0
  Relative Heart Rate: 76.4
[3]; [9]
  Incidence of Atrial Arrest: 90
  Incidence of Pericardial Edema: 100
  Mortality: 26.7
  Relative Heart Rate: 58.5
  incidence of atrial arrest: 90%
[3]; zebrafish, drug dissolved into the water, 24 hours
  maximum non-lethal concentration: 2.5 µg/mL
[4]; 0.5 mg/ml
  Actual Heart Rate (± SD): 159.0 ± 6.8 beat / min
  Incidence of Circulatory Insufficiency: 0%
  Incidence of Decreased Blood Flow: 0%
  Incidence of Pericardial Edema: 0%
  Mortality: 0%
  Relative Heart Rate (± SD): 99.1 ± 4.2%
[4]; 1.0 mg/ml
  Actual Heart Rate (± SD): 159.6 ± 5.3 beat / min
  Incidence of Circulatory Insufficiency: 0%
  Incidence of Decreased Blood Flow: 10%
  Incidence of Pericardial Edema: 20%
  Mortality: 0%
  Relative Heart Rate (± SD): 99.4 ± 3.3%
[4]; 2.0 mg/ml
  Actual Heart Rate (± SD): 158.4 ± 8.7 beat / min
  Incidence of Circulatory Insufficiency: 10%
  Incidence of Decreased Blood Flow: 10%
  Mortality: 0%
  Relative Heart Rate (± SD): 98.7 ± 5.4%
[4]; 2.0 mg/ml (67 mg/kg)
  Incidence of Pericardial Edema: 30%
[4]; 4.0 mg/ml
  Actual Heart Rate (± SD): 166.5 ± 7.2 beat / min
  Incidence of Circulatory Insufficiency: 10%
  Incidence of Decreased Blood Flow: 40%
  Incidence of Pericardial Edema: 60%
  Mortality: 20%
  Relative Heart Rate (± SD): 103.7 ± 4.5%
[4]; 8.0 mg/ml
  Actual Heart Rate (± SD): 167.1 ± 10.2 beat / min
  Incidence of Circulatory Insufficiency: 40%
  Incidence of Decreased Blood Flow: 10%
  Incidence of Pericardial Edema: 60%
  Mortality: 33.3%
  Relative Heart Rate (± SD): 104.1 ± 6.4%
[4]; 16 mg/ml
  Actual Heart Rate (± SD): 166.8 ± 10.3 beat / min
  Incidence of Circulatory Insufficiency: 40%
  Incidence of Decreased Blood Flow: 30%
  Incidence of Pericardial Edema: 70%
  Mortality: 50%
  Relative Heart Rate (± SD): 103.9 ± 6.4%
[4]; 32 mg/ml
  Actual Heart Rate (± SD): 144.5 ± 7.4 beat / min
  Incidence of Circulatory Insufficiency: 100%
  Incidence of Decreased Blood Flow: 0%
  Incidence of Pericardial Edema: 100%
  Mortality: 80%
  Relative Heart Rate (± SD): 90.0 ± 4.6 %

## bovine serum albumin: positive control of the anaphylaxis tests
SD rats
  Blue Stain Reaction: +
  Blue Stain Reaction (diameter): 22.0 ± 4.3 mm
Guinea pigs
  intensity of anaphylaxis reaction: ++˜++++
  mortality rate: 50%
  total reaction rate: 100%

## COCCOC(=O)C1=C(C)NC(C)=C(C(=O)OC(C)C)C1c1cccc([N+](=O)[O-])c1 (stereo not drawn) [β-type, nimodipine]
[5]; normal temperature
  Solubility, Water: 0.0036 mg/mL (≈ 0.0086 mM)
[5]; published literature
  solubility in water: 0.0036 mg/mL (≈ 0.0086 mM)
[1]; medium-chain oil, read-out: Solubility, Medium-chain Oil
  solubility: 11.8 mg/mL (≈ 28.2 mM)
[1]; soybean oil, read-out: Solubility, Soybean Oil
  solubility: 6.7 mg/mL (≈ 16 mM)
[1]; soybean oil:medium-chain oil (4:6), read-out: Solubility, Soybean Oil:Medium-chain Oil (4:6)
  solubility: 11 mg/mL (≈ 26.3 mM)
